{"source": "ChEMBL document CHEMBL5120880", "about": "“Peptidomimetics: An Overview of Recent Medicinal Chemistry Efforts toward the Discovery of Novel Small Molecule Inhibitors” (J Med Chem, 2022)", "key": {"Staphylococcus aureus [1]": {"system": "Staphylococcus aureus", "assay": "Antibacterial activity against Staphylococcus aureus MRSA assessed as minimal inhibitory concentration incubated for 24 hrs", "assay_type": "functional"}, "Bacillus subtilis [2]": {"system": "Bacillus subtilis", "assay": "Antibacterial activity against Bacillus subtilis assessed as minimal inhibitory concentration incubated for 72 hrs", "assay_type": "functional"}, "Staphylococcus aureus [3]": {"system": "Staphylococcus aureus", "assay": "Antibacterial activity against Staphylococcus aureus assessed as minimal inhibitory concentration incubated for 24 hrs", "assay_type": "functional"}, "Escherichia coli [4]": {"system": "Escherichia coli", "assay": "Antibacterial activity against Escherichia coli assessed as minimal inhibitory concentration incubated for 24 hrs", "assay_type": "functional"}, "Salmonella enterica": {"system": "Salmonella enterica", "assay": "Antibacterial activity against Salmonella enterica assessed as minimal inhibitory concentration incubated for 24 hrs", "assay_type": "functional"}, "[5]": {"system": "Staphylococcus epidermidis", "assay": "Antimicrobial activity against Staphylococcus epidermidis KCTC 1917 assessed as minimal inhibitory concentration incubated for 18 hrs", "assay_type": "functional"}, "Escherichia coli [6]": {"system": "Escherichia coli", "assay": "Antimicrobial activity against Escherichia coli KCTC 1682 assessed as minimal inhibitory concentration incubated for 18 hrs", "assay_type": "functional"}, "Pseudomonas aeruginosa": {"system": "Pseudomonas aeruginosa", "assay": "Antimicrobial activity against Pseudomonas aeruginosa KCTC 1637 assessed as minimal inhibitory concentration incubated for 18 hrs", "assay_type": "functional"}, "Staphylococcus aureus [7]": {"system": "Staphylococcus aureus", "assay": "Antimicrobial activity against Staphylococcus aureus KCTC 1621 assessed as minimal inhibitory concentration incubated for 18 hrs", "assay_type": "functional"}, "Escherichia coli [8]": {"system": "Escherichia coli", "assay": "Antibacterial activity against Escherichia coli BW25113 assessed as minimal inhibitory concentration by microdilution assay", "assay_type": "functional"}, "Bacillus subtilis [9]": {"system": "Bacillus subtilis", "assay": "Antibacterial activity against Bacillus subtilis DSM10 assessed as minimal inhibitory concentration by microdilution assay", "assay_type": "functional"}, "Salmonella typhimurium": {"system": "Salmonella typhimurium", "assay": "Antibacterial activity against Salmonella typhimurium TA100 assessed as minimal inhibitory concentration by microdilution assay", "assay_type": "functional, Salmonella enterica subsp. enterica serovar Typhimurium", "details": "Salmonella enterica"}, "Mycolicibacterium phlei": {"system": "Mycolicibacterium phlei", "assay": "Antibacterial activity against Mycobacterium phlei DSM750 assessed as minimal inhibitory concentration by microdilution assay", "assay_type": "functional"}, "[10]": {"system": "Feline infectious peritonitis virus", "assay": "microbe, parasite or virus in culture", "details": "Alphacoronavirus 1"}, "SARS-CoV-2": {"system": "SARS-CoV-2", "assay": "microbe, parasite or virus in culture", "details": "Severe acute respiratory syndrome coronavirus 2"}, "SARS-CoV": {"system": "SARS-CoV", "assay": "microbe, parasite or virus in culture", "details": "Severe acute respiratory syndrome-related coronavirus"}, "[11]": {"system": "Middle East respiratory syndrome-related coronavirus", "assay": "microbe, parasite or virus in culture"}, "Murine hepatitis virus": {"system": "Murine hepatitis virus", "assay": "microbe, parasite or virus in culture", "details": "Murine coronavirus"}}, "note": "Peptide text beside a SMILES is read from it.", "data": [{"smiles": "C#Cc1cccc(NC(=O)[C@@H](N)CC(C)C)c1", "values": [{"measurement": "MIC", "setting": "Staphylococcus aureus [1]", "result": 31.2, "unit": "µg/mL"}, {"measurement": "MIC", "setting": "Bacillus subtilis [2]", "result": 31.2, "unit": "µg/mL"}, {"measurement": "MIC", "setting": "Staphylococcus aureus [3]", "result": 10.6, "unit": "µg/mL"}, {"measurement": "MIC", "setting": "Escherichia coli [4]", "result": 10.6, "unit": "µg/mL"}, {"measurement": "MIC", "setting": "Salmonella enterica", "result": 15.6, "unit": "µg/mL"}]}, {"smiles": "CC(=O)NCCNc1nc(NCC(N)=O)nc(N(CCCN)CCCN)n1", "values": [{"measurement": "MIC", "setting": "[5]", "result": "> 128", "unit": "µg/mL"}, {"measurement": "MIC", "setting": "Escherichia coli [6]", "result": 128, "unit": "µg/mL"}, {"measurement": "MIC", "setting": "Pseudomonas aeruginosa", "result": 128, "unit": "µg/mL"}, {"measurement": "MIC", "setting": "Staphylococcus aureus [7]", "result": "> 128", "unit": "µg/mL"}]}, {"smiles": "CCCCCCCCCCCCNC(=O)[C@H](N)Cc1ccccc1", "values": [{"measurement": "MIC", "setting": "Staphylococcus aureus [1]", "result": 20, "unit": "µg/mL"}, {"measurement": "MIC", "setting": "Bacillus subtilis [2]", "result": 8.3, "unit": "µg/mL"}, {"measurement": "MIC", "setting": "Staphylococcus aureus [3]", "result": 5, "unit": "µg/mL"}, {"measurement": "MIC", "setting": "Escherichia coli [4]", "result": 5, "unit": "µg/mL"}, {"measurement": "MIC", "setting": "Salmonella enterica", "result": 10, "unit": "µg/mL"}]}, {"smiles": "CCCCCCCCCCCCNC(=O)[C@@H](N)C(C)C", "values": [{"measurement": "MIC", "setting": "Staphylococcus aureus [1]", "result": 8.3, "unit": "µg/mL"}, {"measurement": "MIC", "setting": "Bacillus subtilis [2]", "result": 4.2, "unit": "µg/mL"}, {"measurement": "MIC", "setting": "Staphylococcus aureus [3]", "result": 3.3, "unit": "µg/mL"}, {"measurement": "MIC", "setting": "Escherichia coli [4]", "result": 1.67, "unit": "µg/mL"}, {"measurement": "MIC", "setting": "Salmonella enterica", "result": 6.5, "unit": "µg/mL"}]}, {"smiles": "COc1c(/C=C/c2ccc(NC(=O)[C@H](CC#N)NC(=O)c3ccc(NC(=O)/C(C)=C/c4ccc(O)cc4)cc3)cc2)ccc(C(=O)Nc2ccc(C(=O)O)c(O)c2OC)c1O", "values": [{"measurement": "MIC", "setting": "Escherichia coli [8]", "result": 0.125, "unit": "µg/mL"}, {"measurement": "MIC", "setting": "Bacillus subtilis [9]", "result": 0.063, "unit": "µg/mL"}, {"measurement": "MIC", "setting": "Salmonella typhimurium", "result": 0.063, "unit": "µg/mL"}, {"measurement": "MIC", "setting": "Mycolicibacterium phlei", "result": 0.5, "unit": "µg/mL"}]}, {"smiles": "CCCCCCCCCCCCNC(=O)[C@@H](N)Cc1ccccc1", "values": [{"measurement": "MIC", "setting": "Staphylococcus aureus [1]", "result": 16.6, "unit": "µg/mL"}, {"measurement": "MIC", "setting": "Bacillus subtilis [2]", "result": 10, "unit": "µg/mL"}, {"measurement": "MIC", "setting": "Staphylococcus aureus [3]", "result": 2.5, "unit": "µg/mL"}, {"measurement": "MIC", "setting": "Escherichia coli [4]", "result": 5, "unit": "µg/mL"}, {"measurement": "MIC", "setting": "Salmonella enterica", "result": 5, "unit": "µg/mL"}]}, {"smiles": "COc1c(NC(=O)c2ccc(-c3cc4ccc(-c5ccc(NC(=O)[C@H](CC#N)NC(=O)c6ccc(NC(=O)/C(C)=C/c7ccc(O)cc7)cc6)cc5)cc4o3)c(OC)c2O)ccc(C(=O)O)c1O", "values": [{"measurement": "MIC", "setting": "Escherichia coli [8]", "result": 1, "unit": "µg/mL"}, {"measurement": "MIC", "setting": "Bacillus subtilis [9]", "result": 0.25, "unit": "µg/mL"}, {"measurement": "MIC", "setting": "Salmonella typhimurium", "result": 0.125, "unit": "µg/mL"}, {"measurement": "MIC", "setting": "Mycolicibacterium phlei", "result": 1, "unit": "µg/mL"}]}, {"smiles": "CC(C)C[C@H](NC(=O)OC1CCCCC1)C(=O)N[C@H](C=O)C[C@H]1CCNC1=O", "values": [{"measurement": "EC50", "setting": "[10]", "result": 0.09, "unit": "µM"}, {"measurement": "IC50", "setting": "SARS-CoV-2", "result": 3.7, "unit": "µM"}, {"measurement": "IC50", "setting": "SARS-CoV", "result": 3.9, "unit": "µM"}, {"measurement": "IC50", "setting": "[11]", "result": 0.35, "unit": "µM"}, {"measurement": "EC50", "setting": "Murine hepatitis virus", "result": 0.12, "unit": "µM"}]}, {"smiles": "CCCCCCCCCCCCNC(=O)[C@@H](N)c1ccccc1", "values": [{"measurement": "MIC", "setting": "Staphylococcus aureus [1]", "result": 15.6, "unit": "µg/mL"}, {"measurement": "MIC", "setting": "Bacillus subtilis [2]", "result": 15.6, "unit": "µg/mL"}, {"measurement": "MIC", "setting": "Staphylococcus aureus [3]", "result": 7.8, "unit": "µg/mL"}, {"measurement": "MIC", "setting": "Escherichia coli [4]", "result": 2.5, "unit": "µg/mL"}, {"measurement": "MIC", "setting": "Salmonella enterica", "result": 3.9, "unit": "µg/mL"}]}, {"smiles": "CCCCCCNC(=O)[C@@H](N)Cc1ccccc1", "values": [{"measurement": "MIC", "setting": "Staphylococcus aureus [1]", "result": 312, "unit": "µg/mL"}, {"measurement": "MIC", "setting": "Bacillus subtilis [2]", "result": 156, "unit": "µg/mL"}, {"measurement": "MIC", "setting": "Staphylococcus aureus [3]", "result": 624, "unit": "µg/mL"}, {"measurement": "MIC", "setting": "Escherichia coli [4]", "result": 156, "unit": "µg/mL"}, {"measurement": "MIC", "setting": "Salmonella enterica", "result": 156, "unit": "µg/mL"}]}, {"smiles": "CC(=O)N[C@@H](CCCCN)C(=O)N[C@@H](Cc1c[nH]c2ccccc12)C(=O)N[C@@H](CCCCN)C(=O)N[C@@H](Cc1c[nH]c2ccccc12)C(N)=O", "note": "(Ac-KWKW-NH2)", "values": [{"measurement": "MIC", "setting": "[5]", "result": "> 128", "unit": "µg/mL"}, {"measurement": "MIC", "setting": "Escherichia coli [6]", "result": "> 128", "unit": "µg/mL"}, {"measurement": "MIC", "setting": "Pseudomonas aeruginosa", "result": "> 128", "unit": "µg/mL"}, {"measurement": "MIC", "setting": "Staphylococcus aureus [7]", "result": "> 128", "unit": "µg/mL"}]}, {"smiles": "CC(=O)N[C@@H](CCCCN)C(=O)N[C@@H](Cc1c[nH]c2ccccc12)C(=O)N[C@@H](CCCCN)C(N)=O", "note": "(Ac-Lys-Trp-Lys-NH2)", "values": [{"measurement": "MIC", "setting": "[5]", "result": "> 128", "unit": "µg/mL"}, {"measurement": "MIC", "setting": "Escherichia coli [6]", "result": 64, "unit": "µg/mL"}, {"measurement": "MIC", "setting": "Pseudomonas aeruginosa", "result": 128, "unit": "µg/mL"}, {"measurement": "MIC", "setting": "Staphylococcus aureus [7]", "result": "> 128", "unit": "µg/mL"}]}, {"smiles": "CC(=O)NCCNc1nc(NCC(=O)NCCNc2nc(NCC(=O)NCCNc3nc(NCC(N)=O)nc(N(Cc4ccccc4)Cc4ccccc4)n3)nc(N(CCCN)CCCN)n2)nc(N(Cc2ccccc2)Cc2ccccc2)n1", "values": [{"measurement": "MIC", "setting": "[5]", "result": 64, "unit": "µg/mL"}, {"measurement": "MIC", "setting": "Escherichia coli [6]", "result": 128, "unit": "µg/mL"}, {"measurement": "MIC", "setting": "Pseudomonas aeruginosa", "result": 32, "unit": "µg/mL"}, {"measurement": "MIC", "setting": "Staphylococcus aureus [7]", "result": 64, "unit": "µg/mL"}]}, {"smiles": "C#Cc1cccc(NC(=O)[C@@H](N)C(C)CC)c1", "note": "(stereo not given in full)", "values": [{"measurement": "MIC", "setting": "Staphylococcus aureus [1]", "result": 62.4, "unit": "µg/mL"}, {"measurement": "MIC", "setting": "Staphylococcus aureus [3]", "result": 31.2, "unit": "µg/mL"}, {"measurement": "MIC", "setting": "Escherichia coli [4]", "result": 15.6, "unit": "µg/mL"}, {"measurement": "MIC", "setting": "Salmonella enterica", "result": 15.6, "unit": "µg/mL"}]}, {"smiles": "CCCC1CCC(OC(=O)N[C@@H](CC(C)C)C(=O)N[C@@H](C[C@H]2CCNC2=O)C(O)S(=O)(=O)O)CC1", "note": "(stereo not given in full)", "values": [{"measurement": "EC50", "setting": "[10]", "result": 0.17, "unit": "µM"}, {"measurement": "IC50", "setting": "SARS-CoV-2", "result": 1.6, "unit": "µM"}, {"measurement": "IC50", "setting": "[11]", "result": 0.1, "unit": "µM"}, {"measurement": "EC50", "setting": "Murine hepatitis virus", "result": 0.16, "unit": "µM"}]}, {"smiles": "COc1c(C#Cc2ccc(NC(=O)[C@H](CC#N)NC(=O)c3ccc(NC(=O)/C(C)=C/c4ccc(O)cc4)cc3)cc2)ccc(C(=O)Nc2ccc(C(=O)O)c(O)c2OC)c1O", "values": [{"measurement": "MIC", "setting": "Escherichia coli [8]", "result": "< 0.063", "unit": "µg/mL"}, {"measurement": "MIC", "setting": "Bacillus subtilis [9]", "result": 0.063, "unit": "µg/mL"}, {"measurement": "MIC", "setting": "Salmonella typhimurium", "result": "≤ 0.016", "unit": "µg/mL"}, {"measurement": "MIC", "setting": "Mycolicibacterium phlei", "result": 0.5, "unit": "µg/mL"}]}, {"smiles": "CC(=O)N[C@@H](CCCCN)C(=O)N[C@@H](Cc1c[nH]c2ccccc12)C(N)=O", "note": "(Ac-Lys-Trp-NH2)", "values": [{"measurement": "MIC", "setting": "[5]", "result": "> 128", "unit": "µg/mL"}, {"measurement": "MIC", "setting": "Escherichia coli [6]", "result": 128, "unit": "µg/mL"}, {"measurement": "MIC", "setting": "Pseudomonas aeruginosa", "result": 128, "unit": "µg/mL"}, {"measurement": "MIC", "setting": "Staphylococcus aureus [7]", "result": "> 128", "unit": "µg/mL"}]}]}
